We go through two compounds from ChEMBL document CHEMBL1133311, “Synthesis and PKC isozyme surrogate binding of indothiolactam-V, a new thioamide analogue of tumor promoting indolactam-V” (Bioorg Med Chem Lett, 2000).

SMILES strings stand for the structures.

In assay [1] the target is T1, Protein kinase C alpha type (Homo sapiens, UniProt P17252). Kind of assay: Displacement of [3H]- PDBu from Protein kinase C alpha C1a domain. (In a radioligand displacement assay an active substance lowers the binding of a labelled ligand.)
The target of assay [2] is T2, Protein kinase C beta type (Homo sapiens, UniProt P05771). Kind of assay: Displacement of [3H]- PDBu from Protein kinase C beta C1a domain.
Assay [3] concerns the target T3, Protein kinase C gamma type (Homo sapiens, UniProt P05129). Kind of assay: Displacement of [3H]- PDBu from Protein kinase C gamma C1b domain.
Assay [4] deals with Protein kinase C theta type (Homo sapiens, UniProt Q04759). Kind of assay: Displacement of [3H]- PDBu from Protein kinase C theta C1b domain.
Assay [5] addresses T3, Protein kinase C gamma type. Kind of assay: Displacement of [3H]- PDBu from Protein kinase C gamma C1a domain.
Assay [6] deals with T4, Protein kinase C epsilon type (Homo sapiens, UniProt Q02156).
T4 sequence (Q02156 whole entry): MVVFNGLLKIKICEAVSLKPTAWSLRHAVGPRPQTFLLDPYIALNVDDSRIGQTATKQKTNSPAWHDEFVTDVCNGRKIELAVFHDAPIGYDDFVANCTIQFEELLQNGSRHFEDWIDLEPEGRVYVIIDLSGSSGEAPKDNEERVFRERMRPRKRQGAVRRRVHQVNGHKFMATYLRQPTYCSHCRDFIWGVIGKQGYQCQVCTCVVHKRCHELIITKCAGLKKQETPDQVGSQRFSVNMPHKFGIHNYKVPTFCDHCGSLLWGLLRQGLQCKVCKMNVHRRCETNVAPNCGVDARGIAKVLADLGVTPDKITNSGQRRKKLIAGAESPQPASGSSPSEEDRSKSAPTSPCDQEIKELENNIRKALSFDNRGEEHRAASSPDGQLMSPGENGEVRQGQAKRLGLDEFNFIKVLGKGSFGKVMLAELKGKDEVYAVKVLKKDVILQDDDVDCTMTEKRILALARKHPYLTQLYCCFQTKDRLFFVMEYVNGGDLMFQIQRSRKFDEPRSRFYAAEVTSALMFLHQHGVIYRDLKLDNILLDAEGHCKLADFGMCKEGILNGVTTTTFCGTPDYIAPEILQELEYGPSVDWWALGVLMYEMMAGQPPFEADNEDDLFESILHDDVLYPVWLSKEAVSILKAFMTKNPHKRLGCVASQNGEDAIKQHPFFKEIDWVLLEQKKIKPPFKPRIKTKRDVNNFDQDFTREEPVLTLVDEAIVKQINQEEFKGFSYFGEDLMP
Kind of assay: Displacement of [3H]- PDBu from Protein kinase C epsilon C1a domain.

In assay [7] the target is T1, Protein kinase C alpha type. Kind of assay: Displacement of [3H]- PDBu from Protein kinase C alpha C1b domain.
The target in assay [8] is T2, Protein kinase C beta type. Kind of assay: Displacement of [3H]- PDBu from Protein kinase C beta C1b domain.
For assay [9], the target named is T5, Protein kinase C eta type (Homo sapiens, UniProt P24723). Kind of assay: Displacement of [3H]- PDBu from Protein kinase C eta C1a domain.
Assay [10] deals with T6, Protein kinase C delta type (Homo sapiens, UniProt Q05655). Kind of assay: Displacement of [3H]- PDBu from Protein kinase C delta C1a domain.
For assay [11], the target named is T4, Protein kinase C epsilon type. Kind of assay: Displacement of [3H]- PDBu from Protein kinase C epsilon C1b domain.
The target of assay [12] is T6, Protein kinase C delta type. Kind of assay: Displacement of [3H]- PDBu from Protein kinase C delta C1b domain.
The target of assay [13] is T5, Protein kinase C eta type. Kind of assay: Displacement of [3H]- PDBu from Protein kinase C eta C1b domain.

T2 sequence (P05771 whole entry, the tested form may be a part): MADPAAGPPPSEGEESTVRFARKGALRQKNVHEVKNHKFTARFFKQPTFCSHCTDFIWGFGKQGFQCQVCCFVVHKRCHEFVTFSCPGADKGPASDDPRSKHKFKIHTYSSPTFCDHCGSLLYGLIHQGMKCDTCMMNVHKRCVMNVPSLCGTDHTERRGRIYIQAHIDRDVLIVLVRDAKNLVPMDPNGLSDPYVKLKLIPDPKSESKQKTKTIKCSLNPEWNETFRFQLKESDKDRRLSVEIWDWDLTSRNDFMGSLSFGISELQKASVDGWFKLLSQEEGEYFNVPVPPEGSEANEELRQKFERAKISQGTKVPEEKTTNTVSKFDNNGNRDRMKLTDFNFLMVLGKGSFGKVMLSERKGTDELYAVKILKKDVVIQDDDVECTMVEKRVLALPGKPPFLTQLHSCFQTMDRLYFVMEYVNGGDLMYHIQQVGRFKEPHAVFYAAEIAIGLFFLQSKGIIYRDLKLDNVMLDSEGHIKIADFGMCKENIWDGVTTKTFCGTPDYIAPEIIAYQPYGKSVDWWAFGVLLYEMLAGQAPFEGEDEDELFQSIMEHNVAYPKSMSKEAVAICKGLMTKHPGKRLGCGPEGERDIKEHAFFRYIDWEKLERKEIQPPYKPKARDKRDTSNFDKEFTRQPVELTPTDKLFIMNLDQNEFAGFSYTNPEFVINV
T5 sequence (P24723 whole entry, the tested form may be a part): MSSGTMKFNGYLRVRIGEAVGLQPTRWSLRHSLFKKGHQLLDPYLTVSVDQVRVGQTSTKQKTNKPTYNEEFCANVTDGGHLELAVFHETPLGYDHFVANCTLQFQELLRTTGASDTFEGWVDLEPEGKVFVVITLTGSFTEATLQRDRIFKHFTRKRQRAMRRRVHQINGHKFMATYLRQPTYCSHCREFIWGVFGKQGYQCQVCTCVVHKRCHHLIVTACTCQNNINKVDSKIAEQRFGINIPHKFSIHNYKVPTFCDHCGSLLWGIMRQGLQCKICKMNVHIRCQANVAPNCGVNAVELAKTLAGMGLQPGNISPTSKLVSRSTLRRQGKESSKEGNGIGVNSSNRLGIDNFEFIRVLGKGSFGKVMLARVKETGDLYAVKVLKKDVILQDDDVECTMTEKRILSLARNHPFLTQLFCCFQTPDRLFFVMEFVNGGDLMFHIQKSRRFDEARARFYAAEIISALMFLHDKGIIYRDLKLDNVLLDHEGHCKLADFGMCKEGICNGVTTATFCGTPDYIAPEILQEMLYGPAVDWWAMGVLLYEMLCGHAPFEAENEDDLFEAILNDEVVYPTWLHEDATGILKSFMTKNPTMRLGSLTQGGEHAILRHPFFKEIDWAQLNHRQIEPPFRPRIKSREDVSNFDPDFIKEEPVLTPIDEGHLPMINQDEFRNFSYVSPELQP
T6 sequence (Q05655 whole entry, the tested form may be a part): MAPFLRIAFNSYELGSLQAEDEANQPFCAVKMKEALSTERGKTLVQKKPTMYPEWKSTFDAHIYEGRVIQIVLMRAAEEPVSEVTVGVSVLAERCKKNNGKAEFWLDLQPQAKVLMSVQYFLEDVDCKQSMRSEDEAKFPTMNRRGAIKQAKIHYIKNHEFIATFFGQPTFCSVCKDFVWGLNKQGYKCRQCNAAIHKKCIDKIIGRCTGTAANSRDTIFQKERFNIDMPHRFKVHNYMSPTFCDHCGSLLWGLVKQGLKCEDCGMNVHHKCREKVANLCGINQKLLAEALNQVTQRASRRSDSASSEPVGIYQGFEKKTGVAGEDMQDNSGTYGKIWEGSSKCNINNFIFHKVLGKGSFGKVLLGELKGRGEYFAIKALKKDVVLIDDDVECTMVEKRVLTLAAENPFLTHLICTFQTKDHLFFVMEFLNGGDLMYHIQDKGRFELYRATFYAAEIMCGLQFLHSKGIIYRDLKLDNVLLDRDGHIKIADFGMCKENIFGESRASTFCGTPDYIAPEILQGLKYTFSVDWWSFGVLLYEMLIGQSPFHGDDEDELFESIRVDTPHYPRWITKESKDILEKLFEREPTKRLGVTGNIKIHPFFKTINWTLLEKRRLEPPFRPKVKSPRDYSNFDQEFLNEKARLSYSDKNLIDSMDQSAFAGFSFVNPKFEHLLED
Chain of Protein kinase C theta type (Q04759 whole entry, the tested form may be a part): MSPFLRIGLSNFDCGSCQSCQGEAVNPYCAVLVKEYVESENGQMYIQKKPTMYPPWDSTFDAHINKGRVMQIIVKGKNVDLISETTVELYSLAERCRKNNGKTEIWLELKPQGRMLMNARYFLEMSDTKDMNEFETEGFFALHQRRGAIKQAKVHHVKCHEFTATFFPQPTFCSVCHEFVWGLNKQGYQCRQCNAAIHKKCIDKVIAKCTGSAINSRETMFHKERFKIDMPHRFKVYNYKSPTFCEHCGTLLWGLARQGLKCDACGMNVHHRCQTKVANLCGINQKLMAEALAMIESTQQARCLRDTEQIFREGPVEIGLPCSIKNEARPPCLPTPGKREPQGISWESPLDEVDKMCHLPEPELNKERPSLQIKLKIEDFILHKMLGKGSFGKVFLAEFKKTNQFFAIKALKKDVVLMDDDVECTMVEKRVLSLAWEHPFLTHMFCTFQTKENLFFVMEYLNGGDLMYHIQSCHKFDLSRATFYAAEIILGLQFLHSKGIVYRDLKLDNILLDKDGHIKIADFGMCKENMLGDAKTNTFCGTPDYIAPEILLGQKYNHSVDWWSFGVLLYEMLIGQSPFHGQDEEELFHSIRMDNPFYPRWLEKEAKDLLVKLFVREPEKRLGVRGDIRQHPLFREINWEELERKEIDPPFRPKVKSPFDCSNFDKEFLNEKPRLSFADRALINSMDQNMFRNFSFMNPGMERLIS

For orientation: Ki means the equilibrium dissociation constant of an inhibitor or competing ligand from its target. Turning to `CC(C)[C@H]1C(=S)N[C@H](CO)Cc2c[nH]c3cccc(c23)N1C`, the Ki turned out to be 261 nM in assay [1]; 180 nM in [2]; 288 nM in assay [3]; 61.6 nM in [4]; 296 nM in assay [5]; 3860 nM in assay [6]. For the same compound, the Ki amounted to 2140 nM in assay [7]; 226 nM in [8]; 2160 nM in assay [9]; 2950 nM in assay [10]; 41.5 nM in [11]; 67.5 nM in assay [12]. The compound also gave a Ki in assay [13] of 20.6 nM.

`CC(C)[C@H]1C(=O)N[C@H](CO)Cc2c[nH]c3cccc(c23)N1C` [INDOLACTUM]: the Ki was 127 nM in [1]; 173 nM in [2]; 213 nM in assay [3]; 8.7 nM in [4]; 138 nM in assay [5]; 4110 nM in assay [6]. Also, the inhibitory constant (Ki) in assay [7] came out at 4000 nM; in assay [8], 136 nM; in assay [9] it was 3770 nM; in assay [10], 1900 nM; in assay [11], 7.7 nM; in assay [12], 8.3 nM. This compound had an inhibitory constant (Ki) in assay [13] of 5.5 nM.
